What was measured:
Pseudomonas aeruginosa [1] = test: Activity at Pseudomonas aeruginosa PDC-2 by spectrophotometer
Pseudomonas aeruginosa [2] = test: Activity at Pseudomonas aeruginosa PDC-3 by spectrophotometer
Pseudomonas aeruginosa [3] = test: Ratio of Kcat to Km for Pseudomonas aeruginosa PDC-2 by spectrophotometer
Pseudomonas aeruginosa [4] = test: Ratio of Kcat to Km for Pseudomonas aeruginosa PDC-3 by spectrophotometer

SMILES	Km (Pseudomonas aeruginosa [1]) [µM]	kcat (Pseudomonas aeruginosa [1]) [s⁻¹]	Km (Pseudomonas aeruginosa [2]) [µM]	kcat (Pseudomonas aeruginosa [2]) [s⁻¹]	kcat/Km (Pseudomonas aeruginosa [3]) [M⁻¹ s⁻¹]	kcat/Km (Pseudomonas aeruginosa [4]) [M⁻¹ s⁻¹]
CC1(C)S[C@@H]2[C@H](NC(=O)Cc3ccccc3)C(=O)N2[C@H]1C(=O)O	30	35	30	35	1.2e+06	1.2e+06
CO/N=C(\C(=O)N[C@@H]1C(=O)N2C(C(=O)O)=C(COC(C)=O)CS[C@H]12)c1csc(N)n1	5	5	8	0.15	30000	20000
CC(C)(O/N=C(\C(=O)N[C@@H]1C(=O)N2C(C(=O)[O-])=C(C[n+]3ccccc3)CS[C@H]12)c1csc(N)n1)C(=O)O	20	0.01	35	0.02	500	600
CO/N=C(\C(=O)N[C@@H]1C(=O)N2C(C(=O)[O-])=C(C[N+]3(C)CCCC3)CS[C@H]12)c1csc(N)n1	850	2	1300	2	2000	1500
C[C@@H](O)[C@H]1C(=O)N2C(C(=O)O)=C(SCCNC=N)C[C@H]12	35	0.2	20	0.1	5000	5000
CCN1CCN(C(=O)N[C@@H](C(=O)N[C@@H]2C(=O)N3[C@@H]2SC(C)(C)[C@@H]3C(=O)O)c2ccccc2)C(=O)C1=O	40	5.5	40	5	135000	125000
